According to patent US20090215894A1, “INHIBITION OF PHOSPHATASE ACTIVITY OF SOLUBLE EPOXIDE HYDROLASE AMINO TERMINUS AND USES THEREOF” (REGENTS OF THE UNIVERSITY OF CALIFORNIA, priority 2005, published 2009):

Assays:
[1] = molecular target: T1, Human sEH Cterm-EH activity (Homo sapiens, UniProt P34913); test: Cterm-EH dissociation constant with [3H]-trans-1,3-diphenylpropene oxide; format: biochemical
T1 construct: use of a truncated enzyme from crude extract versus purified full-length human sEH; made in house; host or cells: baculovirus expression system (insect cells)
T1 sequence (P34913 1-555): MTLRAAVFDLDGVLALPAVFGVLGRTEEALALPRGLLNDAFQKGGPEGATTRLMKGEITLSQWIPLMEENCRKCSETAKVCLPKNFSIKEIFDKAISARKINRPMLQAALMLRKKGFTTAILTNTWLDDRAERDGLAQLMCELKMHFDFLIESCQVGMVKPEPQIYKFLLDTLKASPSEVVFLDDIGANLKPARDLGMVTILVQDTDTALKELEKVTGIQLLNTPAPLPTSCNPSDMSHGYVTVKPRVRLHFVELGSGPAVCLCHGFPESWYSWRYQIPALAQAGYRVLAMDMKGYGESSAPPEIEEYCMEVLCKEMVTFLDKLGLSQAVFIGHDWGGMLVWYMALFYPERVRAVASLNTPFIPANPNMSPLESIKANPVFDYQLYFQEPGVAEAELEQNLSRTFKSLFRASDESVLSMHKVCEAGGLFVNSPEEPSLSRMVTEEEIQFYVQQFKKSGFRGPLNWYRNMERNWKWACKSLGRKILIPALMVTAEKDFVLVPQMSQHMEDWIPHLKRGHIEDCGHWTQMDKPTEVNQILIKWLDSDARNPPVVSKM
Method: For the Cterm-EH activity, dissociation constants were determined using racemic [^3H]-trans-1,3-diphenylpropene oxide as substrate. […] Velocity was measured as described (Borhan et al., Anal. Biochem. 231, 188-200 (1995)). […] Results are mean±standard deviation of three separate determination of KI.

[2] = molecular target: T1, Human sEH Cterm-EH activity; test: Cterm-EH inhibition IC50 with 4-nitrophenyl-trans-2,3-epoxy-3-phenylpropyl carbonate; format: biochemical; settings: substrate 50 μM, 5 min preincubation, 30° C.; read-out: IC50
full length human sEH = molecular target: T2, full length human sEH (Homo sapiens, UniProt P34913); test: EH activity inhibition, full length human sEH; format: biochemical
T2 construct: use of a truncated enzyme from crude extract versus purified full-length human sEH; made in house; host or cells: baculovirus expression system (insect cells)
T2 sequence (P34913 1-555): T1 sequence (P34913 1-555)
Method: Nterm-Phos activity was measured in Bis-Tris HCl buffer (25 mM PH 7.0) containing 0.1 mg/mL of Fraction V BSA and 1 mM of MgCl2 (buffer A) at 30° C. […] APHP activity was measured as described using 7 as substrate (Newman et al., Proc. Natl. Acad. Sci. USA. 100, 1558-1563 (2003)). Compounds 34-37 were incubated separately with the enzyme for a given time, and then the reaction was stopped by the addition of 100 μL of methanol. The reaction products for compounds 34-37 were extracted with 500 μL of ethyl acetate. The quantification of the alcohol products was performed by LC/MS analysis of 2 μL of the organic phase. The Cterm-EH activity was measured as described previously in buffer A, using either racemic 4-nitrophenyl-trans-2,3-epoxy-3-phenylpropyl carbonate (Dietze et al., Anal. Biochem. 216, 176-187 (1994)) or racemic [^3H]-trans-1,3-diphenylpropene oxide as substrate (Borhan et al., Anal. Biochem. 231, 188-200 (1995)). This latter substrate was also used to measure the activity of the cress sEH and the truncated human sEH.

cress sEH = test: EH activity inhibition, cress sEH; format: biochemical, mouse-eared cress
Excerpt: (§1) Recombinant human sEH (HsEH) was produced in a baculovirus expression system (Beetham et al., Arch. Biochem. Biophys. 305, 197-201 (1993)) and purified by affinity chromatography (Wixtrom et al., Anal. Biochem. 169, 71-80 (1983)). […] No detectable esterase or glutathione transferase activities were observed. Recombinant mouse-eared cress sEH was produced in a baculovirus expression system and purified as described (Morisseau et al., Arch. Biochem. Biophys. 378, 321-332 (2000)). The nucleotide sequence of the C-terminal region (Mel^[…]) of human sEH was amplified by PCR using [NT] as forward primer and [NT] as reverse primer. The resulting band was gel purified and restricted with EcoR1 and Sal1, which were introduced by the primers, and the restricted fragment sub-cloned into the multiple cloning site of the pFastBac1 vector (Invitrogen). After verification of the obtained nucleotide sequence, the recombinant pFastBac1 plasmid was introduced in competent DH10bac cells leading to the formation of a recombinant plasmid containing the DNA insert. The isolated recombinant plasmid was used to produce recombinant baculovirus in Sf21 cells following procedures recommended by the manufacturer. The truncated HsEH was produced in high-5 Trichloplusia ni cell cultures following published procedures (Beetham et al., Arch. Biochem. Biophys. 305, 197-201 (1993)). Seventy-two hours post infection, the cells were collected by centrifugation (2,000 g×20 min). The cell pellet was then suspended in a sodium phosphate buffer (76 mM, pH 7.4) containing 1 mM of phenylmethylsulfonyl fluoride, EDTA and dithiothretol. The suspension was then homogenized by Polytron at 9,000 rpm for 1 min and centrifuged (10,000 g×20 min). The resulting supernatant was frozen at -80° C. until used for experiments. […] Protein concentrations were quantified with the Pierce BCA assay (Pierce; Rockford, Ill.) using Fraction V bovine serum albumin (BSA) as the calibrating standard. Nterm-Phos activity was measured in Bis-Tris HCl buffer (25 mM PH 7.0) containing 0.1 mg/mL of Fraction V BSA and 1 mM of MgCl2 (buffer A) at 30° C. […] APHP activity was measured as described using 7 as substrate (Newman et al., Proc. Natl. Acad. Sci. USA. 100, 1558-1563 (2003)). Compounds 34-37 were incubated separately with the enzyme for a given time, and then the reaction was stopped by the addition of 100 μL of methanol. The reaction products for compounds 34-37 were extracted with 500 μL of ethyl acetate. The quantification of the alcohol products was performed by LC/MS analysis of 2 μL of the organic phase. […] Biochem. 231, 188-200 (1995)). This latter substrate was also used to measure the activity of the cress sEH and the truncated human sEH.

truncated human sEH = molecular target: T3, truncated human sEH (Homo sapiens, UniProt P34913); test: EH activity inhibition, N-terminally truncated human sEH; format: biochemical
T3 construct: C-terminal region (Mel^237-Met^554) of human sEH was amplified by PCR; made in house; host or cells: baculovirus (pFastBac1) in high-5 Trichoplusia ni cells; 10,000 g supernatant used as crude extract
T3 sequence (P34913 237-555 limits assumed): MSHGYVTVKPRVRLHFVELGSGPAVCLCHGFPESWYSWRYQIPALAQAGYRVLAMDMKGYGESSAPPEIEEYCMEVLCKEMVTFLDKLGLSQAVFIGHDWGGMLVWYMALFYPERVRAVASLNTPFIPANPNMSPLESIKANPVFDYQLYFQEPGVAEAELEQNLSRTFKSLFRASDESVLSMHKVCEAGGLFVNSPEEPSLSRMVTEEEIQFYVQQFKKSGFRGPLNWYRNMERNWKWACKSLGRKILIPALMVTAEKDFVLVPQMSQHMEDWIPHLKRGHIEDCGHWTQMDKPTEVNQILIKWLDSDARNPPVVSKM
Excerpt: as §1

Nterm-phos = molecular target: T4, Nterm-phos (Homo sapiens, UniProt P34913); test: Sulfates tested as substrates for Nterm-phos (LC-MS of alcohol or diol); format: biochemical; settings: enzyme 400 nM, compound 100 μM, one hour
T4 construct: use of a truncated enzyme from crude extract versus purified full-length human sEH; made in house; host or cells: baculovirus expression system (insect cells)
T4 sequence (P34913 1-555): T1 sequence (P34913 1-555)
Method: To understand the mode of action of these new inhibitors, compounds 1 and 2 were tested as substrates for the Nterm-phos. Enzyme was incubated (400 nM) with the compounds (100 μM) for an hour and analyzed the mixture by LC-MS to detect any alcohol or diol formed (Newman et al., Proc. Natl. Acad. Sci. USA. 100, 1558-1563 (2003)). Formation of any alcohol or diol was not detected.

**Q.** With `CCCCCCCCC(CCCCCCCCC(=O)O)OS(=O)(=O)O` (stereo not drawn) [Compound 1, 10-Sulfonooxy-octadecanoic acid] as the compound, how does the “KI at Cterm-EH relative to KI at Nterm-Phos” value [1] read?
**A.** roughly 100 fold

**Q.** And the Ki ([1]; non-competitive inhibition, n=3)?
**A.** 31 ± 2 µM

**Q.** And the IC50 [2]?
**A.** 28 ± 2 µM

**Q.** And the inhibition at 100 µM (full length human sEH)?
**A.** 86 ± 2%

**Q.** And the “Inhibition at 100 μM (%)” value (cress sEH)?
**A.** <2%

**Q.** What about the inhibition at 100 µM (truncated human sEH) of the same compound?
**A.** 89 ± 3%

**Q.** And the “Formation of any alcohol or diol” value (Nterm-phos)?
**A.** not detected

**Q.** Which results are given for `CCCCCCCCC(OS(=O)(=O)O)C(O)CCCCCCCC(=O)O` (stereo not drawn) [Compound 2, 9/10-Sulfonooxy-hydroxy-octadecanoic acid]?
**A.** IC50 [2]: 90 ± 5 µM; inhibition at 100 µM (full length human sEH): 54 ± 3%; Inhibition at 100 μM (%) (cress sEH): <2%; inhibition at 100 µM (truncated human sEH): 58 ± 2%; Formation of any alcohol or diol (Nterm-phos): not detected

**Q.** Which results are given for `CCCCCCCCCC(CCCCCCCC)OS(=O)(=O)O` (stereo not drawn) [Compound 3, 9-Octadecanyl-sulfate]?
**A.** IC50 [2]: 21 ± 5 µM; inhibition at 100 µM (full length human sEH): 72 ± 2%; Inhibition at 100 μM (%) (cress sEH): <2%; inhibition at 100 µM (truncated human sEH): 67 ± 3%

**Q.** What does the source list for `CCCCCCC(C/C=C\CCCCCCCC(=O)O)OS(=O)(=O)O` (stereo not drawn) [Compound 4, 12-Sulfonoxy-cis-9-octadecenoic acid]?
**A.** IC50 [2]: > 100 µM; inhibition at 100 µM (full length human sEH): 26 ± 3%; Inhibition at 100 μM (%) (cress sEH): <2%; inhibition at 100 µM (truncated human sEH): 16 ± 2%

**Q.** For `CCCCCCC(C/C=C/CCCCCCCC(=O)O)OS(=O)(=O)O` (stereo not drawn) [Compound 5, 12-Sulfonoxy-trans-9-octadecenoic acid], which IC50 [2] is on record?
**A.** 16 ± 3 µM

**Q.** And the inhibition at 100 µM (full length human sEH)?
**A.** 68 ± 2%

**Q.** And the “Inhibition at 100 μM (%)” value (cress sEH)?
**A.** <2%

**Q.** And the inhibition at 100 µM (truncated human sEH)?
**A.** 44 ± 4%
